Experimental findings from patent US9567302B2, “Carbamate compounds and of making and using same” (Abide Therapeutics, Inc., priority 2012, dated 2017) are described below.

Holding throughout (assay type): biochemical
Common to all, as to design: from tissue

The target in one test is T1, MAGL (Mus musculus, UniProt O35678).
T1 sequence (O35678 1-303): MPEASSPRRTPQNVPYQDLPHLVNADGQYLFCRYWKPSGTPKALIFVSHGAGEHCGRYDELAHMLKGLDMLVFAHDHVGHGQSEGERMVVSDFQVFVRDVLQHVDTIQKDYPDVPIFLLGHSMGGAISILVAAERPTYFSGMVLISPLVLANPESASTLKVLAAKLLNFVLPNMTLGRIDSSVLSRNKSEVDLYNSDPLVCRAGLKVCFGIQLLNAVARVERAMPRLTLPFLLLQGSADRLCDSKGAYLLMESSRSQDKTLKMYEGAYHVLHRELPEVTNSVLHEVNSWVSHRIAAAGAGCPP
Description: In vitro competitive ABPP, % inhibition at fixed concentration, MAGL. An outline of the steps:
(§1)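 Mouse brain membrane proteome or cell lysate at 1.0 mg/ml was preincubated with inhibitor for 30 min at 37° C, then labelled with FP-Rh for another 30 min. After SDS-PAGE, activity was quantified from the fluorescent intensity of the MAGL, ABHD6 and FAAH bands.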

For another test, the target named is T2, ABHD6 (Mus musculus, UniProt Q8R2Y0).
T2 sequence (Q8R2Y0 1-336): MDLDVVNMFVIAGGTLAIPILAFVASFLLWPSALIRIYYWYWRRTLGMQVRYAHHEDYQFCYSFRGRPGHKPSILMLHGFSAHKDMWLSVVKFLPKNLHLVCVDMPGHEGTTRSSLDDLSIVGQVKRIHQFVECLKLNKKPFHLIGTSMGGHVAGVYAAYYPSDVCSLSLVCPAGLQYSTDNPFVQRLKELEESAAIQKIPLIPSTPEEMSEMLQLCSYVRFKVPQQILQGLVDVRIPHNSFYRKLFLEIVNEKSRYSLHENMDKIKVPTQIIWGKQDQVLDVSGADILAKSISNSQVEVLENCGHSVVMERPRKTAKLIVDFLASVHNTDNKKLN
Description: In vitro competitive ABPP, % inhibition at fixed concentration, ABHD6. An outline of the steps: as §1

For the next test, the target named is T3, FAAH (Mus musculus, UniProt O08914).
T3 sequence (O08914 1-579): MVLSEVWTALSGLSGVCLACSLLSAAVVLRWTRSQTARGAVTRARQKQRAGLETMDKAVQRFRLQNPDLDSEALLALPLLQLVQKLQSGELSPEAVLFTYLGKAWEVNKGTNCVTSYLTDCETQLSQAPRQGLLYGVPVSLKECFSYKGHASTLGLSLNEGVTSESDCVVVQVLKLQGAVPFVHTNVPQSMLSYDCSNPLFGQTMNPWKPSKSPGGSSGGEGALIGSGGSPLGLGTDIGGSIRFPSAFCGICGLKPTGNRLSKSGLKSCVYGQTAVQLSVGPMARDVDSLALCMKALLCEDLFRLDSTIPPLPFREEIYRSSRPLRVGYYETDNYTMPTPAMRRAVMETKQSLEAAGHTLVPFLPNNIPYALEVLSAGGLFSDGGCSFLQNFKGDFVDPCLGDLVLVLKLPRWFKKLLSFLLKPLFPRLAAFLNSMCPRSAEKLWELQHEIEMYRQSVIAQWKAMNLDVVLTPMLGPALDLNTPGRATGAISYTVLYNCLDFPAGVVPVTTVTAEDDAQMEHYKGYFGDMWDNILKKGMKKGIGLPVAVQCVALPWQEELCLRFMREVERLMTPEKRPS
In words: In vitro competitive ABPP, % inhibition at fixed concentration, FAAH. The method in brief: as §1

What is called inhibition is how much of the control response was suppressed. A lower inhibition goes with a response near the control.

Consider `Cc1cccc(-c2ccc(CN3CCN(C(=O)ON4C(=O)CCC4=O)CC3)c(C)c2)c1` [Example 163, 2,5-Dioxopyrrolidin-1-yl 4-{[2-methyl-4-(3-methylphenyl)phenyl]methyl}piperazine-1-carboxylate], for which the inhibition at 1 µM is 25 to 75% on MAGL, 25 to 75% on ABHD6 and < 25% at FAAH.
For the compound `O=C(ON1C(=O)CCC1=O)N1CCN(Cc2ccc(-c3ccccc3)cc2F)CC1` [Example 164, 2,5-Dioxopyrrolidin-1-yl 4-[(2-fluoro-4-phenylphenyl)methyl]piperazine-1-carboxylate], the inhibition at 1 µM is > 75% at MAGL, > 75% on ABHD6 and < 25% at FAAH.
For the compound `Cc1cc(-c2ccc(CN3CCN(C(=O)ON4C(=O)CCC4=O)CC3)c(F)c2)ccn1` [Example 166, 2,5-Dioxopyrrolidin-1-yl 4-{[2-fluoro-4-(2-methylpyridin-4-yl)phenyl]methyl}piperazine-1-carboxylate], the inhibition at 1 µM at MAGL was 25 to 75%; at ABHD6, > 75%; at FAAH, < 25%.
For the compound `COc1cc(-c2ccccc2)ccc1CN1CCN(C(=O)ON2C(=O)CCC2=O)CC1` [Example 167, 2,5-Dioxopyrrolidin-1-yl 4-[(2-methoxy-4-phenylphenyl)methyl]piperazine-1-carboxylate], the inhibition at 1 µM is > 75% at MAGL, 25 to 75% at ABHD6 and < 25% at FAAH.
With `O=C(ON1C(=O)CCC1=O)N1CCN(Cc2ccc(-c3cccc(F)c3)cn2)CC1` [Example 168, 2,5-Dioxopyrrolidin-1-yl 4-{[5-(3-fluorophenyl)pyridin-2-yl]methyl}piperazine-1-carboxylate], the inhibition at 1 µM on MAGL was 25 to 75%; on ABHD6 it was 25 to 75%; at FAAH, < 25%.
For `Cc1cccc(-c2ccc(CN3CCN(C(=O)ON4C(=O)CCC4=O)CC3)c(Oc3ccccc3)c2)c1` [Example 169, 2,5-Dioxopyrrolidin-1-yl 4-{[4-(3-methylphenyl)-2-phenoxyphenyl]methyl}piperazine-1-carboxylate], the results for the inhibition at 1 µM on MAGL, on ABHD6 and on FAAH were 25 to 75%, > 75% and < 25%, respectively.
`Cc1cc(-c2cccnc2C)ccc1CN1CCN(C(=O)ON2C(=O)CCC2=O)CC1` [Example 170, 2,5-Dioxopyrrolidin-1-yl 4-{[2-methyl-4-(2-methylpyridin-3-yl)phenyl]methyl}piperazine-1-carboxylate]: the inhibition at 1 µM is 25 to 75% at MAGL, 25 to 75% on ABHD6 and < 25% on FAAH.
`Cc1cc(-c2ccncc2C)ccc1CN1CCN(C(=O)ON2C(=O)CCC2=O)CC1` [Example 171, 2,5-Dioxopyrrolidin-1-yl 4-{[2-methyl-4-(3-methylpyridin-4-yl)phenyl]methyl}piperazine-1-carboxylate]: the inhibition at 1 µM on MAGL is 25 to 75%; on ABHD6, 25 to 75%; at FAAH, < 25%.
For `Cc1cc(-c2cccnc2)ccc1CN1CCN(C(=O)ON2C(=O)CCC2=O)CC1` [Example 172, 2,5-Dioxopyrrolidin-1-yl 4-{[2-methyl-4-(pyridin-3-yl)phenyl]methyl}piperazine-1-carboxylate], the inhibition at 1 µM was 25 to 75% on MAGL, 25 to 75% at ABHD6 and < 25% on FAAH.
Take `Cc1cccc(-c2ccc(CN3CCN(C(=O)ON4C(=O)CCC4=O)CC3)c(C)c2)n1` [Example 173, 2,5-Dioxopyrrolidin-1-yl 4-{[2-methyl-4-(6-methylpyridin-2-yl)phenyl]methyl}piperazine-1-carboxylate]: the inhibition at 1 µM at MAGL is 25 to 75%; at ABHD6, 25 to 75%; at FAAH, < 25%.
As for `Cc1ncccc1-c1ccc(CN2CCN(C(=O)ON3C(=O)CCC3=O)CC2)c(F)c1` [Example 174, 2,5-Dioxopyrrolidin-1-yl 4-{[2-fluoro-4-(2-methylpyridin-3-yl)phenyl]methyl}piperazine-1-carboxylate], the inhibition at 1 µM at MAGL was 25 to 75%; at ABHD6, 25 to 75%; on FAAH, < 25%.
For the compound `Cc1cccc(-c2ccc(CN3CCN(C(=O)ON4C(=O)CCC4=O)CC3)c(F)c2)n1` [Example 175, 2,5-Dioxopyrrolidin-1-yl 4-{[2-fluoro-4-(6-methylpyridin-2-yl)phenyl]methyl}piperazine-1-carboxylate], the inhibition at 1 µM at MAGL was 25 to 75%; at ABHD6, 25 to 75%; on FAAH, < 25%.
For `Cc1cc(-c2ccc(CN3CCN(C(=O)ON4C(=O)CCC4=O)CC3)c(F)c2)cc(C)n1` [Example 176, 2,5-Dioxopyrrolidin-1-yl 4-{[4-(2,6-dimethylpyridin-4-yl)-2-fluorophenyl]methyl}piperazine-1-carboxylate], the inhibition at 1 µM at MAGL was 25 to 75%; at ABHD6, 25 to 75%; at FAAH it was < 25%.
As for `Cc1cnccc1-c1ccc(CN2CCN(C(=O)ON3C(=O)CCC3=O)CC2)c(F)c1` [Example 177, 2,5-Dioxopyrrolidin-1-yl 4-{[2-fluoro-4-(3-methylpyridin-4-yl)phenyl]methyl}piperazine-1-carboxylate], the inhibition at 1 µM is 25 to 75% at MAGL, > 75% on ABHD6 and < 25% on FAAH.
Consider `Cc1nc(CN2CCN(C(=O)ON3C(=O)CCC3=O)CC2)ccc1-c1ccccc1F` [Example 178, 2,5-Dioxopyrrolidin-1-yl 4-{[5-(2-fluorophenyl)-6-methylpyridin-2-yl]methyl}piperazine-1-carboxylate], for which the figures for the inhibition at 1 µM on MAGL, on ABHD6 and on FAAH were 25 to 75%, 25 to 75% and < 25%, respectively.
Turning to `Cc1ccccc1-c1ccc(CN2CCN(C(=O)ON3C(=O)CCC3=O)CC2)nc1C` [Example 179, 2,5-Dioxopyrrolidin-1-yl 4-{[6-methyl-5-(2-methylphenyl)pyridin-2-yl]methyl}piperazine-1-carboxylate], the figures for the inhibition at 1 µM at MAGL, at ABHD6 and on FAAH were 25 to 75%, 25 to 75% and < 25%, respectively.
In the case of `Cc1cccc(-c2ccc(CN3CCN(C(=O)ON4C(=O)CCC4=O)CC3)nc2C)c1` [Example 180, 2,5-Dioxopyrrolidin-1-yl 4-{[6-methyl-5-(3-methylphenyl)pyridin-2-yl]methyl}piperazine-1-carboxylate], the inhibition at 1 µM on MAGL was > 75%; at ABHD6, > 75%; at FAAH, < 25%.
Consider `Cc1nc(CN2CCN(C(=O)ON3C(=O)CCC3=O)CC2)ccc1-c1cccc(F)c1` [Example 181, 2,5-Dioxopyrrolidin-1-yl 4-{[5-(3-fluorophenyl)-6-methylpyridin-2-yl]methyl}piperazine-1-carboxylate], for which the inhibition at 1 µM is 25 to 75% at MAGL, < 25% at ABHD6 and < 25% at FAAH.
Take `Cc1ccccc1-c1ccc(CN2CCN(C(=O)ON3C(=O)CCC3=O)CC2)c(C)n1` [Example 182, 2,5-Dioxopyrrolidin-1-yl 4-{[2-methyl-6-(2-methylphenyl)pyridin-3-yl]methyl}piperazine-1-carboxylate]: the results for the inhibition at 1 µM at MAGL, on ABHD6 and at FAAH were 25 to 75%, > 75% and < 25%, respectively.
`Cc1nc(-c2ccccc2F)ccc1CN1CCN(C(=O)ON2C(=O)CCC2=O)CC1` [Example 183, 2,5-Dioxopyrrolidin-1-yl 4-{[6-(2-fluorophenyl)-2-methylpyridin-3-yl]methyl}piperazine-1-carboxylate]: the results for the inhibition at 1 µM at MAGL, at ABHD6 and on FAAH were 25 to 75%, > 75% and < 25%, respectively.
As to `Cc1cccc(-c2ccc(CN3CCN(C(=O)ON4C(=O)CCC4=O)CC3)c(C)n2)c1` [Example 184, 2,5-Dioxopyrrolidin-1-yl 4-{[2-methyl-6-(3-methylphenyl)pyridin-3-yl]methyl}piperazine-1-carboxylate], the inhibition at 1 µM at MAGL was > 75%; at ABHD6 it was 25 to 75%; at FAAH it was < 25%.
